The target of data set [1] is T1, UGT2B10 (Homo sapiens, UniProt P36537).
T1 sequence (P36537 whole entry): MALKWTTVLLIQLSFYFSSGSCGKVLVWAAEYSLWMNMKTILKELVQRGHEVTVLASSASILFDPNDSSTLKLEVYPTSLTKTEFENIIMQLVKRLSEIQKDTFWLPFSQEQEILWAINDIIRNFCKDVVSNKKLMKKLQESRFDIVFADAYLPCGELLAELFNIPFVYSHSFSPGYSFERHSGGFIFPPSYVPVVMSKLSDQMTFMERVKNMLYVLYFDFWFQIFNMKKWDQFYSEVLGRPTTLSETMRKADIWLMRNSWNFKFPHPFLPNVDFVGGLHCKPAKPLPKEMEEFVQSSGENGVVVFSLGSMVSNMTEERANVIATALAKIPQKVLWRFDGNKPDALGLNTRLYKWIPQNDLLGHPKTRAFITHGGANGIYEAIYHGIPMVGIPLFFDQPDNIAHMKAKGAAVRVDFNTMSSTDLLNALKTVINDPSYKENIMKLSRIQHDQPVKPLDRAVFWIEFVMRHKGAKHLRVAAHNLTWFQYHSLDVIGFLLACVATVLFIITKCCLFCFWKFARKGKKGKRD
The data set can be described thus: Inhibition of human recombinant UGT2B10 at 25 uM by fluorescence spectroscopy. Particulars: read-out: Activity. On the set-up: scale not given: the % may be the effect or the level left.

For data set [2], the target named is T2, UGT2B15 (Homo sapiens, UniProt P54855).
T2 sequence (P54855 whole entry): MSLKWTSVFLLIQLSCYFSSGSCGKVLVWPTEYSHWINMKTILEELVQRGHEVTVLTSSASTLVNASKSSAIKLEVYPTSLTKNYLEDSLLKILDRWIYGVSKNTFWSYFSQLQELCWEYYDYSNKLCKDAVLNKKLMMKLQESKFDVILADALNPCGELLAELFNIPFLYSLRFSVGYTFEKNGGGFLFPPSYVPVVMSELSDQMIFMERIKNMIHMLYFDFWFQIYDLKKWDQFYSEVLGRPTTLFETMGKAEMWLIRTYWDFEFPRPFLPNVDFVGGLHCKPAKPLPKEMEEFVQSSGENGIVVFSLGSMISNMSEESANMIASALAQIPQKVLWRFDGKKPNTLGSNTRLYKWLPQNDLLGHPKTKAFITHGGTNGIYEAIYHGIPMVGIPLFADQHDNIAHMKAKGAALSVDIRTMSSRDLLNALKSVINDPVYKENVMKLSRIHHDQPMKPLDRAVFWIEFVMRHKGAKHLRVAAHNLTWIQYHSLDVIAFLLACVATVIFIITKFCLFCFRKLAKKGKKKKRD
As to the kind of experiment: Inhibition of human recombinant UGT2B15 at 25 uM by fluorescence spectroscopy. On the set-up: scale not given: the % may be the effect or the level left. Particulars: read-out: Activity.

The target of data set [3] is T3, UGT2B17 (Homo sapiens, UniProt O75795).
T3 sequence (O75795 whole entry): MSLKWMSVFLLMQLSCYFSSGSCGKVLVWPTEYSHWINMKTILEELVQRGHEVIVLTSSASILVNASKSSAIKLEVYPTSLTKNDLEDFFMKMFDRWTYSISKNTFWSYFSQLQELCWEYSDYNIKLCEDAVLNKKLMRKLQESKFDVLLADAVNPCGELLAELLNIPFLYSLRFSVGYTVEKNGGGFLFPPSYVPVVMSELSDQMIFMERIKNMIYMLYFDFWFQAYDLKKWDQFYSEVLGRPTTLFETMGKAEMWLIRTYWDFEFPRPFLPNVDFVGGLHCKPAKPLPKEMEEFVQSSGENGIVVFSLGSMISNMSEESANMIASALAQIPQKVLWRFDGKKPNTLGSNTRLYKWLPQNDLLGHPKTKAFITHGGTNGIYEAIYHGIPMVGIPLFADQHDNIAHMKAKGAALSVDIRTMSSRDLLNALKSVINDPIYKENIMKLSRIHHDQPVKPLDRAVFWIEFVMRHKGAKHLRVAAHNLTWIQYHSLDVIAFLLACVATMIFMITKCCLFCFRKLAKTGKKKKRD
As to the kind of experiment: Inhibition of human recombinant UGT2B17 at 25 uM by fluorescence spectroscopy.

The target in data set [4] is T4, UGT2B4 (Homo sapiens, UniProt P06133).
T4 sequence (P06133 whole entry): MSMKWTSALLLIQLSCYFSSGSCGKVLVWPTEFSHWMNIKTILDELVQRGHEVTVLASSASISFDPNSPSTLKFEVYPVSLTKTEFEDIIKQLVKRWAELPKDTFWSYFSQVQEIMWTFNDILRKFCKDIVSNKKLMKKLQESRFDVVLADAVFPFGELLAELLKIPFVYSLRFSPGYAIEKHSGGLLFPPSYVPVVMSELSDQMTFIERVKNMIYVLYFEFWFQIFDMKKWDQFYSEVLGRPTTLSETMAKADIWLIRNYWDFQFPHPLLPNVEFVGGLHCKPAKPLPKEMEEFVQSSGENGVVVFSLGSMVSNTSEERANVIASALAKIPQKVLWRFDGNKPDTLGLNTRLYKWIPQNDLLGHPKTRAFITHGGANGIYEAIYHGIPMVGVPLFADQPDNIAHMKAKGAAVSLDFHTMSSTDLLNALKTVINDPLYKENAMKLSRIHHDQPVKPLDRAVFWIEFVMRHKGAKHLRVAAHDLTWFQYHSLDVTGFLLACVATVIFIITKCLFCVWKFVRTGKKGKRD
The data set can be described thus: Inhibition of human recombinant UGT2B4 at 25 uM by fluorescence spectroscopy. On the set-up: scale not given: the % may be the effect or the level left. Particulars: read-out: Activity.

Data set [5] concerns the target T5, UDP-glucuronosyltransferase 2B17 (Homo sapiens, UniProt O75795).
T5 sequence (O75795 whole entry): T3 sequence (O75795 whole entry)
As to the kind of experiment: Inhibition of human recombinant UGT2B17 assessed as reduction of scopoletin glucuronidation.

The target in data set [6] is T6, UGT2B28 (Homo sapiens, UniProt Q9BY64).
T6 sequence (Q9BY64 whole entry): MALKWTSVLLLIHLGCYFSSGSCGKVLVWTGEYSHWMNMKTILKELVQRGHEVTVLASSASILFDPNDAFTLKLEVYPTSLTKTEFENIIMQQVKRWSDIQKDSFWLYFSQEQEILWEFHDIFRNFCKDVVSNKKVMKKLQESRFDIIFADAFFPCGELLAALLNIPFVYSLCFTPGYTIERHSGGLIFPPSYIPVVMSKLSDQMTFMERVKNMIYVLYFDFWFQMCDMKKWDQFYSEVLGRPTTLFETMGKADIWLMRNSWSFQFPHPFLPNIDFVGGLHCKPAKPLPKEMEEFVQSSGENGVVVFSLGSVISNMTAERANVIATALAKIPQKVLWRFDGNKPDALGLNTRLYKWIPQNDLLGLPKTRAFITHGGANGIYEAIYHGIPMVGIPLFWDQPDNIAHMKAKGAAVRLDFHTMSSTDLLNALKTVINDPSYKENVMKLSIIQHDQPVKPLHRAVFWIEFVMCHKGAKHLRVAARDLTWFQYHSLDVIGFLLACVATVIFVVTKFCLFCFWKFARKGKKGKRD
As to the kind of experiment: Inhibition of human recombinant UGT2B28 at 25 uM by fluorescence spectroscopy. Details: scale not given: the % may be the effect or the level left. The settings on record: read-out: Activity.

With `CC1(C)CCC[C@]2(C)[C@@H]([C@@H](O)c3ccccc3)[C@H]3CC[C@@H]2[C@H]31`, the activity at 25 µM in data set [1], in data set [2], in data set [4] and in data set [6] was 30% in each case. Besides, in data set [3], the inhibition at 25 µM is 70%. Moreover, in data set [5], the Ki worked out at 21.8 µM.

As a reminder, the inhibition is the relative decrease from the control value, in per cent. Broadly, the Ki is a measure of affinity in units of concentration, obtained from inhibition or displacement.

These data come from ChEMBL document CHEMBL1143068, “Isoform-selective inhibition of the human UDP-glucuronosyltransferase 2B7 by isolongifolol derivatives” (J Med Chem, 2007).
